Read-outs that look alike come from different tables or passages of the source. One block for each molecule: values may come before it.
Columns and labels:
PKN1 [1] = target: T1, PKN1 (Homo sapiens, UniProt Q16512); assay: Bisubstrate steady-state kinetic analysis of PKN1 in the presence of arachidonic acid
PKN2 [2] = target: T2, PKN2 (Homo sapiens, UniProt Q16513); assay: Bisubstrate steady-state kinetic analysis of PKN2 in the presence of arachidonic acid
PKN3 [3] = target: T3, PKN3 (Homo sapiens, UniProt Q6P5Z2); assay: Bisubstrate steady-state kinetic analysis of PKN3 in the presence of arachidonic acid
T3 sequence (Q6P5Z2 whole entry): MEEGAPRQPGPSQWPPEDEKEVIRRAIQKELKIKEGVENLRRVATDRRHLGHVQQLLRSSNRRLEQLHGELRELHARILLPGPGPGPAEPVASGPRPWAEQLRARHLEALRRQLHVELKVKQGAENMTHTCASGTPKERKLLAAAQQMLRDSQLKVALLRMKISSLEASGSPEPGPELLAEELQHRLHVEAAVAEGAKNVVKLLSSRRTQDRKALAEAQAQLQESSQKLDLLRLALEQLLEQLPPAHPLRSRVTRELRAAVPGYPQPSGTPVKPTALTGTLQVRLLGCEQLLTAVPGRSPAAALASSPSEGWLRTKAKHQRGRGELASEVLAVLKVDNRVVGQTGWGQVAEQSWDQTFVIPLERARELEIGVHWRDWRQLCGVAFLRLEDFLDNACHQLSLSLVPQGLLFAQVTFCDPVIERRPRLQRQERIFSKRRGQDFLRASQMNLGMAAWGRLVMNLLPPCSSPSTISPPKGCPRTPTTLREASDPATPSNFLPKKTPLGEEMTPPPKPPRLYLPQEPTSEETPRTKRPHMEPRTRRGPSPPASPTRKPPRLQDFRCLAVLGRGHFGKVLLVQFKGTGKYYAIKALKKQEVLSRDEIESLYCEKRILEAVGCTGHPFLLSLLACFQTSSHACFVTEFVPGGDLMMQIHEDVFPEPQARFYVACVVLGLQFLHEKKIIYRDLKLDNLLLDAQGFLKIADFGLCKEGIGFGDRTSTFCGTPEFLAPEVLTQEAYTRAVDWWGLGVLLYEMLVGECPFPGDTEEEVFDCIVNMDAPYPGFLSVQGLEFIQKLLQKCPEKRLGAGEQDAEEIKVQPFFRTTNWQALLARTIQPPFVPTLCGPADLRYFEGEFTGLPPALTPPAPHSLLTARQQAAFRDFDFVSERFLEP

PKN3 [4] = target: T3, PKN3; assay: Lipid activation of PKN3 kinase activity, off-chip mobility shift assay; assay type: biochemical; set-up: Full-length, FLAG-tagged human PKN1, PKN2 and PKN3 were expressed in mammalian HEK-293 cells
Experimental: (§1) Lipids were supplied as a solid powders, ethanol, or chloroform solutions. All solids were dissolved directly into assay buffer and briefly water bath sonicated at room temperature for 10 min. Lipids supplied as solutions in organic solvent were dried under a gentle stream of nitrogen, resuspended in assay buffer, and similarly sonicated. All lipids were prepared fresh daily.
(§2) The activity of all PKN proteins was monitored through the use of a highly sensitive off-chip mobility shift assay utilizing a LabChip EZ Reader II instrument (Caliper Life Sciences/PerkinElmer); this assay format has been described elsewhere. Kinase activity was monitored through the phosphorylation of a 5-FAM-labelled PKN substrate peptide found through Pfizer in-house optimization efforts and derived from the amino acid sequence of GSK3α (accession no. AAH51865.1) with the following sequence: 5-FAM-C6-[…]-NH2. The likely site of phosphorylation is underlined, as determined through comparison with the published phosphorylation consensus sequence for PKN1 and PKN3 substrates. Reaction buffer contained 25 mM Tris, pH 8.0, 5 mM MgCl2, 0.002% CHAPS and 2 mM DTT, with indicated protein, ATP and peptide concentrations. Peptide concentration was adjusted according to purity and peptide content. For inhibition studies, the inhibitor was pre-incubated with enzyme for 15 min at room temperature. All reactions were initiated with ATP and conducted at room temperature (~22°C). Reactions were terminated by the addition of EDTA, pH 8.0, at a final concentration of 25 mM. All reaction rates were determined to be linear with respect to time and enzyme concentration where no more than 20% of peptide substrate had been converted to product. Aliquots of each reaction were transferred in duplicate to a 384-well plate and analysed on a LabChip EZ Reader II with separation buffer containing 100 mM Hepes, pH 7.5, 0.015% Brij-35, 1 mM EDTA, 0.1% CR3 coating reagent, 1×CR8 coating reagent and 5% DMSO, with the following settings: downstream voltage: −500 V, upstream voltage: −2300 V, base pressure: −0.5 psi; screen pressure: −1.7 psi.
Ki values for representative inhibitors were determined by fitting initial reaction velocities to eqn (2) for competitive inhibition using the method of non-linear least-squares using GraphPad Prism. Turnover number (kcat) was calculated by normalizing Vmax values for enzyme concentration.
(§3) Figure 2 PKN responses to lipid activators in biochemical assays Lipids were prepared as described under the Experimental section, and kinase activity of PKN isoforms was measured using off-chip mobility shift assay described in the Methods section. Each lipid was titrated in the presence of 1 nM, 5 nM and 3 nM PKN1–3, respectively, 3 μM peptide and 500 μM ATP. vi is the initial rate at each concentration of lipid activator and vo is the initial rate in the absence of lipid.

PKN1 [5] = target: T1, PKN1; assay: Lipid activation of PKN1 kinase activity, off-chip mobility shift assay; assay type: biochemical; set-up: Full-length, FLAG-tagged human PKN1, PKN2 and PKN3 were expressed in mammalian HEK-293 cells; host or cells: HEK-293 (transient transfection, pcDNA4/TO); conditions: saturating ATP (500 μM), 3 μM peptide, 1 nM PKN1; for PKN1 Maximal fold activation: increase in initial rate
Experimental: as §1
as §2, with “psi. […]” for “psi.”
as §3

PKN2 [6] = target: T2, PKN2; assay: Lipid activation of PKN2 kinase activity, off-chip mobility shift assay; assay type: biochemical; set-up: Full-length, FLAG-tagged human PKN1, PKN2 and PKN3 were expressed in mammalian HEK-293 cells; host or cells: HEK-293 (transient transfection, pcDNA4/TO)
Experimental: as §1
as §2, with “psi. […]” for “psi.”
as §3

PKN2 [7] = system: PKN2; set-up: method as in PMID 17850214, PMID 10998351; conditions: ref [29],[30], cited from earlier work
PKN1 [8] = target: T1, PKN1; assay: PKN1 kinase inhibition, off-chip mobility shift assay; assay type: biochemical; set-up: Full-length, FLAG-tagged human PKN1, PKN2 and PKN3 were expressed in mammalian HEK-293 cells; host or cells: HEK-293 (transient transfection, pcDNA4/TO)
RIP2 = conditions: read-out: IC50 RIP2; panel of over 70 protein kinases; ref [29]; cited from earlier work
Lck = conditions: read-out: IC50 Lck; panel of over 70 protein kinases; ref [29]; cited from earlier work
Src = conditions: read-out: IC50 Src; panel of over 70 protein kinases; ref [29]; cited from earlier work
CK1δ = conditions: read-out: IC50 CK1δ; panel of over 70 protein kinases; ref [29]; cited from earlier work
CSK = conditions: read-out: IC50 CSK; panel of over 70 protein kinases; ref [29]; cited from earlier work
PKN3 [9] = target: T3, PKN3; assay: PKN3 kinase inhibition, off-chip mobility shift assay; assay type: biochemical; set-up: Full-length, FLAG-tagged human PKN1, PKN2 and PKN3 were expressed in mammalian HEK-293 cells
[10] = 100 μM vs 0 μM arachidonic acid

T2 sequence (Q16513 whole entry): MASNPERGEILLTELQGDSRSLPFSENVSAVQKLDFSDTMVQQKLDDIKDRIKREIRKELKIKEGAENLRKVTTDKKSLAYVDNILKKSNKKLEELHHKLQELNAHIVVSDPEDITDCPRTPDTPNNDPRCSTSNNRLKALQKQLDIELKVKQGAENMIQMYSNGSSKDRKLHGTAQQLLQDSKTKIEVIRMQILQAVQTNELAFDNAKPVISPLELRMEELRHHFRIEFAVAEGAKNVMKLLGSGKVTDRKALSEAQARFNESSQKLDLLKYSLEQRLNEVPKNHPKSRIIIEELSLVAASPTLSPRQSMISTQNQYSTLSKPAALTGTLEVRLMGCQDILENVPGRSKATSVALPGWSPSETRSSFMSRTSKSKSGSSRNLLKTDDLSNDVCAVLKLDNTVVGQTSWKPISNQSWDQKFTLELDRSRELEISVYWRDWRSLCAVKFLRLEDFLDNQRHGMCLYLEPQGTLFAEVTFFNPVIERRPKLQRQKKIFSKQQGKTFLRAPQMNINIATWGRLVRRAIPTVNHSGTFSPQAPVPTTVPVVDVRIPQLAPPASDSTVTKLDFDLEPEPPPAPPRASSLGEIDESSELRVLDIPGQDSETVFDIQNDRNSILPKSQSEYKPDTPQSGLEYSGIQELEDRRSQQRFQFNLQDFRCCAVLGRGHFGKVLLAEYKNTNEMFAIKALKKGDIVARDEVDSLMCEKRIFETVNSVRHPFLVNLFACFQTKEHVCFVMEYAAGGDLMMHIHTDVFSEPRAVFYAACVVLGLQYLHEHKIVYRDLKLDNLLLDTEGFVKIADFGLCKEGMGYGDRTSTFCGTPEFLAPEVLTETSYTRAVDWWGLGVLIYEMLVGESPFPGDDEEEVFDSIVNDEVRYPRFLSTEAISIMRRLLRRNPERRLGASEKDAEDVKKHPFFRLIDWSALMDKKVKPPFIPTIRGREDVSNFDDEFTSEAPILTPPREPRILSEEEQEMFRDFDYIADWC
T1 sequence (Q16512 whole entry): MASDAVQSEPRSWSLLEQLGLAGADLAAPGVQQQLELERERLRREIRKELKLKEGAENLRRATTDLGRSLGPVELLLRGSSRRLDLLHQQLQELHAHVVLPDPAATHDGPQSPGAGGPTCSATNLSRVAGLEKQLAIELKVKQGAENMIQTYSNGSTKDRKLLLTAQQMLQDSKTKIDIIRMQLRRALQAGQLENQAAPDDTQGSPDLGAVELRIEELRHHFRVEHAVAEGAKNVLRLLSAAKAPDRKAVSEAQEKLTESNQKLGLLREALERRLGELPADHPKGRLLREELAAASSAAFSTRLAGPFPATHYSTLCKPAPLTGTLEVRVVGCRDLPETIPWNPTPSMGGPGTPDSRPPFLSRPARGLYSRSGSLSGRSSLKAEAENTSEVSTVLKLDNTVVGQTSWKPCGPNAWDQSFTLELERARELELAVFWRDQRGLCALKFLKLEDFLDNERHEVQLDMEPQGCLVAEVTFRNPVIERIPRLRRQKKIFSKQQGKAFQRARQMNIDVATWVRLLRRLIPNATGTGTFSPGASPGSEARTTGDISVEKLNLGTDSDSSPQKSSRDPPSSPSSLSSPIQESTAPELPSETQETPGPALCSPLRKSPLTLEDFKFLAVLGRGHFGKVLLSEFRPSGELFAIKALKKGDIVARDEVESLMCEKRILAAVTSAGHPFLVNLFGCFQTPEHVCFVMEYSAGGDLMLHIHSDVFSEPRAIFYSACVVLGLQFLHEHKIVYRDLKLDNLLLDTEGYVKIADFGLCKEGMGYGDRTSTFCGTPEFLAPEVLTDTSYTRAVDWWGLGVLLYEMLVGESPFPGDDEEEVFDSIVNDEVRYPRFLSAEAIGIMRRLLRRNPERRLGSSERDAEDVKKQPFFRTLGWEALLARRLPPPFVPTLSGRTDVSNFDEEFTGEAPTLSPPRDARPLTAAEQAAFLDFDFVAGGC

Kia of PKN1 (equilibrium dissociation constant of ATP) (PKN1 [1]; 100 μM arachidonic acid): 19 ± 10 µM
kcat of PKN1 (PKN1 [1]; 100 μM arachidonic acid): 13 ± 6 s⁻¹
effect on ATP KM for PKN1 (PKN1 [1]; [10]): relatively unaffected
increase in catalytic efficiency (kcat/KM,Pep) of PKN1 (PKN1 [1]; [10]): 32 fold
increase in kcat for PKN1 (PKN1 [1]; [10]): 18 fold
Kia of PKN2 (equilibrium dissociation constant of ATP) (PKN2 [2]; 100 μM arachidonic acid): 2 ± 1 µM
kcat of PKN2 (PKN2 [2]; 100 μM arachidonic acid): 0.9 ± 0.1 s⁻¹
increase in catalytic efficiency (kcat/KM,Pep) of PKN2 (PKN2 [2]; [10]): 12 fold
increase in kcat for PKN2 (PKN2 [2]; [10]): 9 fold
increase in kcat/KM,ATP of PKN2 (PKN2 [2]; [10]): 45 fold
reduction of ATP KM for PKN2 (PKN2 [2]; [10]): 6 fold
Kia of PKN3 (equilibrium dissociation constant of ATP) (PKN3 [3]; 5 μM arachidonic acid): 14 ± 3 µM
kcat of PKN3 (PKN3 [3]; 5 μM arachidonic acid): 1.1 ± 0.1 s⁻¹
reduction of ATP KM for PKN3 (PKN3 [3]; 5 μM vs 0 μM arachidonic acid): 3 fold
effect on kcat for PKN3 (PKN3 [3]; arachidonic acid at 5 μM): no effect
decrease in KM,Pep of PKN3 (PKN3 [3]; arachidonic acid at 5 μM vs 0 μM): 4 fold
effect on PKN3 kinase activity (PKN3 [4]; higher concentrations of arachidonic acid (above 5 μM)): significantly inhibited
PKN3 Maximal fold activation (PKN3 [4]; increase in initial rate, saturating ATP (500 μM), 3 μM peptide, 3 nM PKN3): <2 fold
effect on PKN3 kinase activity (PKN3 [4]; relatively low (5 μM) concentration of arachidonic acid): slightly stimulated
PKN1 Maximal fold activation (PKN1 [5]): 16 fold
PKN1 Maximal fold activation (PKN1 [5]; listed as arachidonic acid): 10–16 fold
EC50 (PKN1 [5]; lipid activator): 11000 ± 1000 nM
effect on PKN2 kinase activity (PKN2 [6]; in words, saturating ATP): increased
PKN2 Maximal fold activation (PKN2 [6]; increase in initial rate, saturating ATP (500 μM), 3 μM peptide, 5 nM PKN2): 7 fold
EC50 (PKN2 [6]; lipid activator, saturating ATP (500 μM), 3 μM peptide, 5 nM PKN2): 9000 ± 1000 nM
SMILES: CCCCC/C=C\C/C=C\C/C=C\C/C=C\CCCC(=O)O [Arachidonic Acid]

Ki (PKN1 [8]; absence of lipids, fit to competitive inhibition, ±S.D., n=2, read-out: PKN1, Ki): 700 ± 200 nM
SMILES: C[C@@H](N)[C@H]1CC[C@H](C(=O)Nc2ccncc2)CC1 [Compound 7, Y27632]

SMILES: Cc1ccc(-c2nn(C(C)(C)C)c3ncnc(N)c23)cc1 [Compound 8, PP1]
PKN2 remaining activity (PKN2 [7]; at 1 μM): 84%
IC50 (RIP2): 26 nM
IC50 (CK1δ): 170 nM
IC50 (CSK): 640 nM
Ki (PKN3 [9]): 1.3 ± 0.1 nM
Ki (PKN1 [8]): > 5000 nM

From PMC3958129, “Enzyme kinetics and distinct modulation of the protein kinase N family of kinases by lipid activators and small molecule inhibitors” (Bioscience Reports, 2014)
